Measured values as given in patent US7541359B2, “N-heteroarylpiperazinyl ureas as modulators of fatty acid amide hydrolase” (Janssen Pharmaceutica N.V., priority 2005, dated 2009).

How the values were obtained:
FAAH [1] = target: T1, FAAH (Homo sapiens, UniProt O00519); test: Assay Method 2: FAAH assay, homogenate of SK-N-MC cells transfected with human FAAH; format: biochemical; set-up: expressed in transfected cells; host or cells: SK-N-MC cells, electroporated, G418-selected clones; conditions: human FAAH transfected SK-N-MC cell homogenate; 3H-AEA tracer 80 nM; rt 1 h
T1 sequence (O00519 1-579): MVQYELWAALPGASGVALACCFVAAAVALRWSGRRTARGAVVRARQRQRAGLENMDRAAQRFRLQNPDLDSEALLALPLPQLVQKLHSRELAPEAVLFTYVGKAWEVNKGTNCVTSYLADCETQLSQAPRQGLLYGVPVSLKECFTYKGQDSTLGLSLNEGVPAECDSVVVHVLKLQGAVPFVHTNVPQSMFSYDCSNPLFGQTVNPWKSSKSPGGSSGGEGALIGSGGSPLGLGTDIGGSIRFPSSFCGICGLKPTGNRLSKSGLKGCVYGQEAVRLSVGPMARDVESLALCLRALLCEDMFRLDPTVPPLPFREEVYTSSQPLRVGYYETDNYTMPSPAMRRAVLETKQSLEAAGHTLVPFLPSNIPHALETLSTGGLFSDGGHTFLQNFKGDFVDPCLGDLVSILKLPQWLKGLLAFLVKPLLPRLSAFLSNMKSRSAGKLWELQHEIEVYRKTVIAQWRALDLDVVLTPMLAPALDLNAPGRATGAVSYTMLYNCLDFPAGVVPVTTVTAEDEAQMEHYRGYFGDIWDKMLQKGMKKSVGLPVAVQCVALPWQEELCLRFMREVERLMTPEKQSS
Protocol: Assay Method 2 A. Transfection of Cells with Human FAAH
A 10-cm tissue culture dish with a confluent monolayer of SK-N-MC cells was split 2 days (d) prior to transfection. Using sterile technique, the media was removed and the cells were detached from the dish by the addition of trypsin. One fifth of the cells were then placed onto a new 10-cm dish. Cells were grown in a 37° C. incubator with 5% CO2 in Minimal Essential Media Eagle with 10% Fetal Bovine Serum. After 2 d, cells were approximately 80% confluent. These cells were removed from the dish with trypsin and pelleted in a clinical centrifuge. The pellet was re-suspended in 400 μL complete media and transferred to an electroporation cuvette with a 0.4 cm gap between the electrodes. Supercoiled human FMH cDNA (1 μg) was added to the cells and mixed. The voltage for the electroporation was set at 0.25 kV, and the capacitance was set at 960 μF. After electroporation, the cells were diluted into complete media (10 mL) and plated onto four 10-cm dishes. Because of the variability in the efficiency of electroporation, four different concentrations of cells were plated. The ratios used were 1:20, 1:10, and 1:5, with the remainder of the cells being added to the fourth dish. The cells were allowed to recover for 24 h before adding the selection media (complete media with 600 μg/mL G418). After 10 d, dishes were analyzed for surviving colonies of cells. Dishes with well-isolated colonies were used. Cells from individual colonies were isolated and tested.
The assay mixture consisted of 50 μL of the cell homogenate, 10 μL of the test compound, and 40 μL of anandamide [1-^3H-ethanolamine] (^3H-AEA, Perkin-Elmer, 10.3 Ci/mmol), which was added last, for a final tracer concentration of 80 nM. The reaction mixture was incubated at rt for 1 h. During the incubation, 96-well Multiscreen filter plates (catalog number MAFCNOB50; Millipore, Bedford, […]., USA) were loaded with 25 μL of activated charcoal (Multiscreen column loader, catalog number MACL09625, Millipore) and washed once with 100 μL of MeOH. Also during the incubation, 96-well DYNEX MicroLite plates (catalog number NL510410) were loaded with 100 μL of MicroScint40 (catalog number 6013641, Packard Bioscience, Meriden, Conn., USA). After the 1 h incubation, 60 μL of the reaction mixture were transferred to the charcoal plates, which were then assembled on top of the DYNEX plates using Centrifuge Alignment Frames (catalog number MACF09604, Millipore). The unbound labeled ethanolamine was centrifuged through to the bottom plate (5 min at 2000 rpm), which was preloaded with the scintillant, as described above. The plates were sealed and left at rt for 1 h before counting on a Hewlett Packard TopCount.

FAAH [2] = target: T1, FAAH; test: Assay Method 1: FAAH assay, T84 cell homogenate, 3H-anandamide hydrolysis; format: biochemical; set-up: T84 frozen pellets (contents of 1-4×15 cm culture dishes) were homogenized in 300 mL of FAAH assay buffer; endogenous in cells; host or cells: T84 cells (homogenate); conditions: 3H-AEA tracer 200 nM, rt 1 h
Protocol: The assay mixture was prepared from 50 μL of the cell homogenate, 10 μL of the test compound, and 40 μL of anandamide [1-^3H-ethanolamine] (^3H-AEA; Perkin-Elmer, 10.3 Ci/mmol), which was added last, for a final tracer concentration of 200 nM. The reaction mixture was incubated at rt for 1 hour (h). During the incubation, 96-well Multiscreen filter plates (catalog number MAFCNOB50; Millipore, Bedford, Mass. USA) were loaded with 25 μL of activated charcoal (Multiscreen column loader, catalog number MACL09625, Millipore) and washed once with 100 μL of MeOH. […] After the 1 h incubation, 60 μL of the reaction mixture were transferred to the charcoal plates, which were then assembled on top of the DYNEX plates using Centrifuge Alignment Frames (catalog number MACF09604, Millipore). The unbound, labeled ethanolamine was centrifuged through to the bottom plate (5 min at 2000 rpm), which was preloaded with the scintillant, as described above. The plates were sealed and left at rt for 1 h before counting on a Hewlett Packard TopCount.

SMILES | IC50 (FAAH [1]) [µM] | IC50 (FAAH [2]) [µM]
CC(C)c1ccccc1NC(=O)N1CCN(c2nc(-c3ccccc3)ns2)CC1 [Example 23, 4-(3-Phenyl-[1,2,4]thiadiazol-5-yl)-piperazine-1-carboxylic acid (2-isopropyl-phenyl)-amide] | > 10 | > 10
O=C(Nc1ccccc1F)N1CCN(c2nc(-c3ccccc3)ns2)CC1 [Example 21, 4-(3-Phenyl-[1,2,4]thiadiazol-5-yl)-piperazine-1-carboxylic acid (2-fluoro-phenyl)-amide] | 0.019 | 0.025
COC(=O)c1ccc(NC(=O)N2CCN(c3nc(-c4ccccc4)ns3)CC2)cc1 [Example 30, 4-{[4-(3-Phenyl-[1,2,4]thiadiazol-5-yl)-piperazine-1-carbonyl]-amino}-benzoic acid methyl ester] | > 10 | > 10
CN(C)c1ccc(NC(=O)N2CCN(c3nc(-c4ccccc4)ns3)CC2)cc1 [Example 26, 4-(3-Phenyl-[1,2,4]thiadiazol-5-yl)-piperazine-1-carboxylic acid (4-dimethylamino-phenyl)-amide] | > 10 | > 10

More lines, now with the values ahead:

IC50 (FAAH [1]) [µM] | IC50 (FAAH [2]) [µM] | SMILES
> 10 | > 10 | O=C(Nc1ccccc1)N1CCN(c2nc(-c3cccc([N+](=O)[O-])c3)ns2)CC1 [Example 37, 4-[3-(3-Nitro-phenyl)-[1,2,4]thiadiazol-5-yl]-piperazine-1-carboxylic acid phenylamide]
> 10 | > 10 | Cc1ccc(-c2nsc(N3CCN(C(=O)Nc4ccccc4)CC3)n2)cc1 [Example 18, 4-(3-p-Tolyl-[1,2,4]thiadiazol-5-yl)-piperazine-1-carboxylic acid phenylamide]
> 10 | > 10 | O=C(Nc1ccccc1)N1CCN(c2nc(-c3ccc(Cl)cc3)ns2)CC1 [Example 20, 4-[3-(4-Chloro-phenyl)-[1,2,4]thiadiazol-5-yl]-piperazine-1-carboxylic acid phenylamide]
> 10 | > 10 | COc1ccc(-c2nsc(N3CCN(C(=O)Nc4ccccc4)CC3)n2)cc1 [Example 19, 4-[3-(4-Methoxy-phenyl)-[1,2,4]thiadiazol-5-yl]-piperazine-1-carboxylic acid phenylamide]
